In patent publication US8883841B2, “Oncogenic ras-specific cytotoxic compound and methods of use thereof” (The Board of Regents of the University of Texas System, priority 2005, dated 2014):
Where two headings read alike, the source gives them in different places.

Tests used:
Sw620 = assay: Cell viability, Sw620 colon cancer cells; assay type: cell-based, human; details: Homo sapiens, SW-620; Sw620, Colon; read-out: IC50 (−LogM) (converted)
Hey = assay: Cell viability, Hey ovary cancer cells; assay type: cell-based
Ovca429 = assay: Cell viability, Ovca429 ovary cancer cells; assay type: cell-based
HT29 = assay: NCI in-vitro testing, HT29 (Colon Cancer)
SF-268 = assay: NCI in-vitro testing, SF-268 (CNS Cancer)
SNB-19 = assay: NCI in-vitro testing, SNB-19 (CNS Cancer)
ACHN = assay: NCI in-vitro testing, ACHN (Renal Cancer)
HL-60(TB) = assay: NCI in-vitro testing, HL-60(TB) (Leukemia)
RPMI-8226 = assay: NCI in-vitro testing, RPMI-8226 (Leukemia)
786-0 = assay: NCI in-vitro testing, 786-0 (Renal Cancer)
SN12C = assay: NCI in-vitro testing, SN12C (Renal Cancer)
SW-620 = assay: NCI in-vitro testing, SW-620 (Colon Cancer)
SK-OV-3 = assay: NCI in-vitro testing, SK-OV-3 (Ovarian Cancer)
MDA-MB-435 = assay: NCI in-vitro testing, MDA-MB-435 (Breast Cancer)
MDA-MB-231/ATCC = assay: NCI in-vitro testing, MDA-MB-231/ATCC (Breast Cancer)
HOP-92 = assay: NCI in-vitro testing, HOP-92 (Non-Small Cell Lung Cancer)
[1] = Homo sapiens, read-out: Log10 GI50 (converted)

Compound: OCc1cn(Cc2ccc(Cl)cc2)c2ccccc12 [Oncrasin K060, 1H-Indole-3-methanol, 1-[(4-chlorophenyl)methyl]-]
- IC50 (Sw620): 5.01 µM
- IC50 (Hey): 10 µM
- IC50 (Ovca429): 31.6 µM
- TGI (HT29; HT20): 2.01E−6 Molar
- Percent Growth (HT29; HT20, Log10 Concentration −4.0 (Molar)): −66%
- Percent Growth (HT29; HT20, Log10 Concentration −5.0 (Molar)): 29%
- Percent Growth (HT29; HT20, Log10 Concentration −6.0 (Molar)): 68%
- Percent Growth (HT29; HT20, Log10 Concentration −7.0 (Molar)): 79%
- Percent Growth (HT29; HT20, Log10 Concentration −8.0 (Molar)): 103%
- GI50 (HT29; Homo sapiens): 1.83 µM
- GI50 (HT29; Homo sapiens, HT-29, read-out: Log10 GI50 (converted)): 1.82 µM
- CC50 (HT29; Homo sapiens, read-out: LC50): 67.6 µM
- GI50 (SF-268; Homo sapiens, SF-268): 12.4 µM
- CC50 (SF-268; Homo sapiens, SF-268, read-out: LC50): > 100 µM
- GI50 (SF-268; Homo sapiens, SF-268, read-out: Log10 GI50 (converted)): 12.3 µM
- TGI (SF-268; SF-268): 4.58E−5 Molar
- Percent Growth (SF-268; SF-268, Log10 Concentration −4.0 Molar): −30%
- Percent Growth (SF-268; SF-268, Log10 Concentration −5.0 Molar): 56%
- Percent Growth (SF-268; SF-268, Log10 Concentration −6.0 Molar): 94%
- Percent Growth (SF-268; SF-268, Log10 Concentration −7.0 Molar): 98%
- Percent Growth (SF-268; SF-268, Log10 Concentration −8.0 Molar): 106%
- GI50 (SNB-19; Homo sapiens, SNB-19): 17.6 µM
- CC50 (SNB-19; Homo sapiens, SNB-19, read-out: LC50): > 100 µM
- GI50 (SNB-19; Homo sapiens, SNB-19, read-out: Log10 GI50 (converted)): 17.8 µM
- TGI (SNB-19; SNB-19): 5.69E−5 Molar
- Percent Growth (SNB-19; SNB-19, Log10 Concentration −4.0 Molar): −24%
- Percent Growth (SNB-19; SNB-19, Log10 Concentration −5.0 Molar): 74%
- Percent Growth (SNB-19; SNB-19, Log10 Concentration −6.0 Molar): 91%
- Percent Growth (SNB-19; SNB-19, Log10 Concentration −7.0 Molar): 97%
- Percent Growth (SNB-19; SNB-19, Log10 Concentration −8.0 Molar): 103%
- TGI (ACHN): 2.25E−5 Molar
- GI50 (ACHN; Homo sapiens): 2 µM
- CC50 (ACHN; Homo sapiens, read-out: LC50): > 100 µM
- GI50 (ACHN; [1]): 2.63 µM
- Percent Growth (ACHN; Log10 Concentration −4.0 Molar): −30%
- Percent Growth (ACHN; Log10 Concentration −5.0 Molar): 10%
- Percent Growth (ACHN; Log10 Concentration −6.0 Molar): 75%
- Percent Growth (ACHN; Log10 Concentration −7.0 Molar): 92%
- Percent Growth (ACHN; Log10 Concentration −8.0 Molar): 99%
- TGI (HL-60(TB); HL-60(TB)): 1.28E−5 Molar
- Percent Growth (HL-60(TB); HL-60(TB), Log10 Concentration −4.0 Molar): −78%
- Percent Growth (HL-60(TB); HL-60(TB), Log10 Concentration −5.0 Molar): 9%
- Percent Growth (HL-60(TB); HL-60(TB), Log10 Concentration −6.0 Molar): 89%
- Percent Growth (HL-60(TB); HL-60(TB), Log10 Concentration −7.0 Molar): 85%
- Percent Growth (HL-60(TB); HL-60(TB), Log10 Concentration −8.0 Molar): 95%
- GI50 (HL-60(TB); Homo sapiens, HL-60): 2.1 µM
- CC50 (HL-60(TB); Homo sapiens, HL-60, read-out: LC50): 4.31 µM
- GI50 (HL-60(TB); Homo sapiens, HL-60, read-out: Log10 GI50 (converted)): 2.09 µM
- GI50 (RPMI-8226; Homo sapiens, RPMI-8226): 0.372 µM
- CC50 (RPMI-8226; Homo sapiens, RPMI-8226, read-out: LC50): > 100 µM
- GI50 (RPMI-8226; Homo sapiens, RPMI-8226, read-out: Log10 GI50 (converted)): 0.372 µM
- TGI (RPMI-8226; RPMI-8226): 3.19E−6 Molar
- Percent Growth (RPMI-8226; RPMI-8226, Log10 Concentration −4.0 Molar): −35%
- Percent Growth (RPMI-8226; RPMI-8226, Log10 Concentration −5.0 Molar): −23%
- Percent Growth (RPMI-8226; RPMI-8226, Log10 Concentration −6.0 Molar): 24%
- Percent Growth (RPMI-8226; RPMI-8226, Log10 Concentration −7.0 Molar): 85%
- Percent Growth (RPMI-8226; RPMI-8226, Log10 Concentration −8.0 Molar): 119%
- TGI (786-0; 786-0): 2.19E−5 Molar
- Percent Growth (786-0; 786-0, Log10 Concentration −4.0 (Molar)): −52%
- Percent Growth (786-0; 786-0, Log10 Concentration −5.0 (Molar)): 27%
- Percent Growth (786-0; 786-0, Log10 Concentration −6.0 (Molar)): 76%
- Percent Growth (786-0; 786-0, Log10 Concentration −7.0 (Molar)): 88%
- Percent Growth (786-0; 786-0, Log10 Concentration −8.0 (Molar)): 99%
- GI50 (786-0; Homo sapiens, 786-0): 34 µM
- CC50 (786-0; Homo sapiens, 786-0, read-out: LC50): 94.7 µM
- GI50 (786-0; Homo sapiens, 786-0, read-out: Log10 GI50 (converted)): 3.39 µM
- TGI (SN12C): 1.94E−5 Molar
- GI50 (SN12C; Homo sapiens): 3.56 µM
- CC50 (SN12C; Homo sapiens, read-out: LC50): 87.2 µM
- GI50 (SN12C; [1]): 3.55 µM
- Percent Growth (SN12C; Log10 Concentration −4.0 Molar): −68%
- Percent Growth (SN12C; Log10 Concentration −5.0 Molar): 27%
- Percent Growth (SN12C; Log10 Concentration −6.0 Molar): 78%
- Percent Growth (SN12C; Log10 Concentration −7.0 Molar): 93%
- Percent Growth (SN12C; Log10 Concentration −8.0 Molar): 97%
- GI50 (SW-620; Homo sapiens, SW-620): 0.571 µM
- CC50 (SW-620; Homo sapiens, SW-620, read-out: LC50): > 100 µM
- GI50 (SW-620; Homo sapiens, SW-620, read-out: Log10 GI50 (converted)): 0.575 µM
- TGI (SW-620; SW-620): 1.80E−5 Molar
- Percent Growth (SW-620; SW-620, Log10 Concentration −4.0 Molar): −46%
- Percent Growth (SW-620; SW-620, Log10 Concentration −5.0 Molar): 16%
- Percent Growth (SW-620; SW-620, Log10 Concentration −6.0 Molar): 39%
- Percent Growth (SW-620; SW-620, Log10 Concentration −7.0 Molar): 83%
- Percent Growth (SW-620; SW-620, Log10 Concentration −8.0 Molar): 94%
- GI50 (SK-OV-3; Homo sapiens, SK-OV-3): 1.82 µM
- CC50 (SK-OV-3; Homo sapiens, SK-OV-3, read-out: LC50): > 100 µM
- GI50 (SK-OV-3; Homo sapiens, SK-OV-3, read-out: Log10 GI50 (converted)): 1.82 µM
- TGI (SK-OV-3; SK-OV-3): 2.96E−5 Molar
- Percent Growth (SK-OV-3; SK-OV-3, Log10 Concentration −4.0 Molar): −16%
- Percent Growth (SK-OV-3; SK-OV-3, Log10 Concentration −5.0 Molar): 16%
- Percent Growth (SK-OV-3; SK-OV-3, Log10 Concentration −6.0 Molar): 52%
- Percent Growth (SK-OV-3; SK-OV-3, Log10 Concentration −7.0 Molar): 85%
- Percent Growth (SK-OV-3; SK-OV-3, Log10 Concentration −8.0 Molar): 96%
- GI50 (MDA-MB-435; Homo sapiens, MDA-MB-435): 19.3 µM
- CC50 (MDA-MB-435; Homo sapiens, MDA-MB-435, read-out: LC50): > 100 µM
- GI50 (MDA-MB-435; Homo sapiens, MDA-MB-435, read-out: Log10 GI50 (converted)): 19.1 µM
- TGI (MDA-MB-435; MDA-MB-435): 5.47E−5 Molar
- Percent Growth (MDA-MB-435; MDA-MB-435, Log10 Concentration −4.0 Molar): −29%
- Percent Growth (MDA-MB-435; MDA-MB-435, Log10 Concentration −5.0 Molar): 81%
- Percent Growth (MDA-MB-435; MDA-MB-435, Log10 Concentration −6.0 Molar): 96%
- Percent Growth (MDA-MB-435; MDA-MB-435, Log10 Concentration −7.0 Molar): 100%
- Percent Growth (MDA-MB-435; MDA-MB-435, Log10 Concentration −8.0 Molar): 102%
- GI50 (MDA-MB-231/ATCC; Homo sapiens, MDA-MB-231): 11 µM
- CC50 (MDA-MB-231/ATCC; Homo sapiens, MDA-MB-231, read-out: LC50): > 100 µM
- GI50 (MDA-MB-231/ATCC; Homo sapiens, MDA-MB-231, read-out: Log10 GI50 (converted)): 11 µM
- TGI (MDA-MB-231/ATCC; MDA-MB-231/ATCC): 4.23E−5 Molar
- Percent Growth (MDA-MB-231/ATCC; MDA-MB-231/ATCC, Log10 Concentration −4.0 Molar): −32%
- Percent Growth (MDA-MB-231/ATCC; MDA-MB-231/ATCC, Log10 Concentration −5.0 Molar): 53%
- Percent Growth (MDA-MB-231/ATCC; MDA-MB-231/ATCC, Log10 Concentration −6.0 Molar): 109%
- Percent Growth (MDA-MB-231/ATCC; MDA-MB-231/ATCC, Log10 Concentration −7.0 Molar): 120%
- Percent Growth (MDA-MB-231/ATCC; MDA-MB-231/ATCC, Log10 Concentration −8.0 Molar): 105%
- TGI (HOP-92; HOP-92): 2.39E−5 Molar
- Percent Growth (HOP-92; HOP-92, Log10 Concentration −4.0 Molar): −60%
- Percent Growth (HOP-92; HOP-92, Log10 Concentration −5.0 Molar): 34%
- Percent Growth (HOP-92; HOP-92, Log10 Concentration −6.0 Molar): 88%
- Percent Growth (HOP-92; HOP-92, Log10 Concentration −7.0 Molar): 81%
- Percent Growth (HOP-92; HOP-92, Log10 Concentration −8.0 Molar): 97%
- GI50 (HOP-92; Homo sapiens, HOP-92): 5.17 µM
- CC50 (HOP-92; Homo sapiens, HOP-92, read-out: LC50): 77.6 µM
- GI50 (HOP-92; Homo sapiens, HOP-92, read-out: Log10 GI50 (converted)): 5.13 µM
